Measurements published in patent publication US5866681A, “Thrombin receptor antagonists” (priority 1995, dated 1999).
Read-outs that look alike come from different tables or passages of the source. Values belong to the compound of their own block, whether it stands above or below them. *1 amine or outer side, *2 acyl side, *3 side chain or, on linkers, in order; H or OH if unused. Where a SMILES comes first, the peptide text is derived from it. [ ]: non-standard residue; d: D form. The star is where a group is joined. X18 = CN(CC(c1ccccc1)c1ccccc1)[C@@H](Cc1ccccc1)C(=O)*; X25 = CN(Cc1ccc(-c2ccccc2)cc1)[C@@H](Cc1ccccc1)C(=O)*; X1 = CN(Cc1cccc(Oc2ccccc2)c1)[C@@H](Cc1ccccc1)C(=O)*; X23 = O=C([C@H](Cc1ccccc1)N(CCC1CCCC1)[*:1])[*:2]; Isoquinolin(3-yl)carbonyl = O=C(c1cc2ccccc2cn1)*; X3 = CCCCCCCN([C@@H](Cc1ccccc1)C(=O)[*:2])[*:1]; X16 = CCCCCN([C@@H](Cc1ccccc1)C(=O)[*:2])[*:1]; X17 = CSCCCN([C@@H](Cc1ccccc1)C(=O)[*:2])[*:1]; X12 = CCCCCN([C@H](Cc1ccccc1)C(=O)[*:2])[*:1]; Quinoxaline2carbonyl = O=C(c1cnc2ccccc2n1)*; X13 = CN(CC1CCCCC1)[C@@H](Cc1ccccc1)C(=O)*; X6 = CCCCCN(CCCCC)[C@@H](Cc1ccccc1)C(=O)*; X9 = CN(Cc1ccccc1)[C@@H](Cc1ccccc1)C(=O)*; X11 = O=C([C@@H]1Cc2ccccc2CN1CC1CCCCC1)*; Benzoyl(2-Ph) = O=C(c1ccccc1-c1ccccc1)*; Butanoyl(2-OPh) = CCC(Oc1ccccc1)C(=O)*; X4 = CCCCCN1Cc2ccccc2C[C@H]1C(=O)*; NMeR = CN[C@@H](CCCNC(=N)N)C(=O)O; Cha = N[C@@H](CC1CCCCC1)C(=O)O; dCha = N[C@H](CC1CCCCC1)C(=O)O; X2 = O=C(Cc1c[nH]c2ccccc12)*; Orn = NCCC[C@H](N)C(=O)O

Target: T1, thrombin receptor (Homo sapiens, UniProt P25116)
T1 construct: washed human platelets are prepared from blood drawn from healthy volunteers; endogenous in cells; host or cells: washed human platelets from healthy volunteers
T1 sequence (P25116 22-425): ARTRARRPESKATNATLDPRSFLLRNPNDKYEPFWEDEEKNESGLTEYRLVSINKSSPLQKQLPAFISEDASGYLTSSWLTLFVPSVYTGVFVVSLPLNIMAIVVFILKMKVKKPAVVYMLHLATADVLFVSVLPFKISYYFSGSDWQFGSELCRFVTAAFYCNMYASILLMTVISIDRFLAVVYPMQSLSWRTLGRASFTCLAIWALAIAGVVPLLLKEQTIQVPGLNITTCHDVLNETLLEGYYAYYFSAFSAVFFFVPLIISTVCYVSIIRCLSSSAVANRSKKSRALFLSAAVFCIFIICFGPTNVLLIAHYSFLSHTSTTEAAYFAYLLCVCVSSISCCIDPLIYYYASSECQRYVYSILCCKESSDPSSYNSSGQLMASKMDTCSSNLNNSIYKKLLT
Experiment: Platelet aggregation assay for thrombin receptor antagonist activity (washed human platelets stimulated with α-thrombin)
Type: cell-based
Method: The compounds of the present invention may be tested for thrombin receptor antagonist activity by using a platelet aggregation assay. In this assay, washed human platelets are prepared from blood drawn from healthy volunteers who have not ingested any medications for two weeks prior to donation. Blood is drawn into 12.5% (vol/vol) ACD (85 mM sodium citrate, 111 mM dextrose, 71 mM citric acid) containing 0.1% (vol/vol) PGI2 (0.05 mg/mL PGI2, 100 mM Tris, pH 12). Platelet-rich plasma was obtained by centrifugation at 160×g for 20 minutes. The platelets were pelleted by centrifugation at 760×g for 10 minutes and resuspended in CGS (13 mM trisodium citrate, 120 mM sodium chloride, 30 mM dextrose, pH 7.0) containing 0.1% (vol/vol) PGI2, repelleted and resuspended in Tyrodes buffer (10 mM Hepes, 12 mM sodium bicarbonate, 138 mM sodium chloride, 5.5 mM glucose, 2.9 mM potassium chloride, 1.0 mM calcium chloride, pH 7.4) and stored at 37° C. Approximately 0.4-10 nM α-thrombin is used to stimulate platelet aggregation in control reactions which are monitored by aggregometry using an aggregometer. Candidate antagonists are added to the platelet mixture followed by the addition of thrombin in order to assess their ability to prevent thrombin-mediated aggregation.
Platelet aggregation can also be measured with washed platelets in 96-well microtiter plates as described in Fratantoni, J. C. et al., Am. J. Clin. Pathol. 94:613-617 (1990). The ability of the antagonists to block the thrombin receptor was assessed in this assay using various concentrations of antagonists. The concentration at which 50% inhibition of platelet aggregation is achieved is defined as IC50.

[1] = washed human platelets, thrombin-mediated aggregation, read-out: IC50 (concentration at which 50% inhibition of platelet aggregation is achieved)

IC50 [1]: 10 µM
Compound: CSCCCN[C@@H](Cc1ccccc1)C(=O)N[C@@H](CC1CCCCC1)C(=O)N[C@@H](CC1CCCCC1)C(=O)N[C@@H](CCCNC(=N)N)C(=O)N[C@@H](CCCCN)C(=O)N1CCC[C@H]1C(=O)N[C@@H](CC(N)=O)C(=O)N[C@@H](CC(=O)O)C(=O)N[C@@H](CCCCN)C(N)=O [Compound 2] (H-[X17][Cha][Cha]RKPNDK-NH2)

IC50 [1]: 2 µM
Compound: CCCCCN(CCCCC)[C@@H](Cc1ccccc1)C(=O)N[C@@H](CC1CCCCC1)C(=O)N[C@H](CC1CCCCC1)C(=O)N[C@@H](CCCNC(=N)N)C(=O)N[C@@H](CCCCN)C(N)=O [Compound 42] (X6-[Cha][dCha]RK-NH2)

IC50 [1]: > 100 µM
Compound: N=C(N)NCCC[C@H](NC(=O)[C@H](CC1CCCCC1)NC(=O)[C@H](CC1CCCCC1)NC(=O)c1cnc2ccccc2n1)C(=O)N[C@@H](CCCCN)C(N)=O [Compound 37] (Quinoxaline2carbonyl-[Cha][Cha]RK-NH2)

IC50 [1]: 20 µM
Compound: CC/C(=C\c1ccccc1)CN[C@@H](CC1CCCCC1)C(=O)N[C@@H](CC1CCCCC1)C(=O)N[C@@H](CCCNC(=N)N)C(=O)N[C@@H](CCCCN)C(N)=O [Compound 35]

IC50 [1]: > 100 µM
Compound: CCC(Oc1ccccc1)C(=O)N[C@@H](CC1CCCCC1)C(=O)N[C@@H](CC1CCCCC1)C(=O)NCc1ccncc1 (stereo partly drawn) [Compound 58]

IC50 [1]: 100 µM
Compound: CCC(Oc1ccccc1)C(=O)N[C@@H](CC1CCCCC1)C(=O)N[C@@H](CC1CCCCC1)C(=O)N[C@@H](CCCN)C(=O)N[C@@H](CCCCN)C(N)=O (stereo partly drawn) [Compound 50] ({Butanoyl(2-OPh)}-[Cha][Cha][Orn]K-NH2)

IC50 [1]: 5 µM
Compound: N=C(N)NCCC[C@H](NC(=O)[C@H](CC1CCCCC1)NC(=O)[C@H](CC1CCCCC1)NC/C=C/c1ccccc1)C(=O)N[C@@H](CCCCN)C(N)=O [Compound 33]

IC50 [1]: 10 µM
Compound: CCCCCCCN[C@@H](Cc1ccccc1)C(=O)N[C@@H](CC1CCCCC1)C(=O)N[C@@H](CC1CCCCC1)C(=O)N[C@@H](CCCNC(=N)N)C(=O)N[C@@H](CCCCN)C(=O)N1CCC[C@H]1C(=O)N[C@@H](CC(N)=O)C(=O)N[C@@H](CC(=O)O)C(=O)N[C@@H](CCCCN)C(N)=O [Compound 3] (H-[X3][Cha][Cha]RKPNDK-NH2)

IC50 [1]: 25 µM
Compound: N=C(N)NCCC[C@H](NC(=O)[C@H](CC1CCCCC1)NC(=O)[C@H](CC1CCCCC1)NC(=O)c1ccccc1-c1ccccc1)C(=O)N[C@@H](CCCCN)C(N)=O [Compound 25] ({Benzoyl(2-Ph)}-[Cha][Cha]RK-NH2)

IC50 [1]: 8 µM
Compound: CCCCCN1Cc2ccccc2C[C@H]1C(=O)N[C@@H](CC1CCCCC1)C(=O)N[C@@H](CC1CCCCC1)C(=O)N(C)[C@@H](CCCNC(=N)N)C(=O)N[C@@H](CCCNC(=N)N)C(N)=O [Compound 39] (X4-[Cha][Cha][NMeR]R-NH2)

IC50 [1]: 15 µM
Compound: C/C(=C\c1ccccc1)CN[C@@H](CC1CCCCC1)C(=O)N[C@@H](CC1CCCCC1)C(=O)N[C@@H](CCCNC(=N)N)C(=O)N[C@@H](CCCCN)C(N)=O [Compound 34]

IC50 [1]: 30 µM
Compound: CN(Cc1ccccc1)[C@@H](Cc1ccccc1)C(=O)N[C@@H](CC1CCCCC1)C(=O)N[C@@H](CC1CCCCC1)C(=O)N[C@@H](CCCNC(=N)N)C(=O)N[C@@H](CCCCN)C(N)=O [Compound 19] (X9-[Cha][Cha]RK-NH2)

IC50 [1]: 5 µM
Compound: CN(Cc1ccc(-c2ccccc2)cc1)[C@@H](Cc1ccccc1)C(=O)N[C@@H](CC1CCCCC1)C(=O)N[C@@H](CC1CCCCC1)C(=O)N[C@@H](CCCNC(=N)N)C(=O)N[C@@H](CCCCN)C(N)=O [Compound 18] (X25-[Cha][Cha]RK-NH2)

IC50 [1]: 2 µM
Compound: CCC(Oc1ccccc1)C(=O)N[C@@H](CC1CCCCC1)C(=O)N[C@@H](CC1CCCCC1)C(=O)N(C)[C@@H](CCCNC(=N)N)C(=O)N[C@@H](CCCCN)C(N)=O (stereo partly drawn) [Compound 53] ({Butanoyl(2-OPh)}-[Cha][Cha][NMeR]K-NH2)

Further lines, the compound ahead of its results:

Compound: CCC(Oc1ccccc1)C(=O)N[C@@H](CC1CCCCC1)C(=O)N[C@@H](CC1CCCCC1)C(=O)N[C@@H](CCCNC(=N)N)C(=O)N[C@H](CCCCN)C(N)=O (stereo partly drawn) [Compound 52] ({Butanoyl(2-OPh)}-[Cha][Cha]R[dK]-NH2)
IC50 [1]: 15 µM

Compound: CN(Cc1cccc(Oc2ccccc2)c1)[C@@H](Cc1ccccc1)C(=O)N[C@@H](CC1CCCCC1)C(=O)N[C@@H](CC1CCCCC1)C(=O)N[C@@H](CCCNC(=N)N)C(=O)N[C@@H](CCCCN)C(N)=O [Compound 17] (X1-[Cha][Cha]RK-NH2)
IC50 [1]: 15 µM

Compound: CCCCCN[C@H](Cc1ccccc1)C(=O)N[C@@H](CC1CCCCC1)C(=O)N[C@@H](CC1CCCCC1)C(=O)N[C@@H](CCCNC(=N)N)C(=O)N[C@@H](CCCCN)C(N)=O [Compound 22] (H-[X12][Cha][Cha]RK-NH2)
IC50: 25 µM

Compound: CCCCCN[C@@H](Cc1ccccc1)C(=O)N[C@@H](CC1CCCCC1)C(=O)N[C@@H](CC1CCCCC1)C(=O)N[C@@H](CCCNC(=N)N)C(=O)N[C@@H](CCCCN)C(N)=O [Compound 14] (H-[X16][Cha][Cha]RK-NH2)
IC50: 5 µM

Compound: CCCCCN[C@@H](Cc1ccccc1)C(=O)N[C@@H](CC1CCCCC1)C(=O)N[C@H](CC(C)C)C(=O)N[C@@H](CCCNC(=N)N)C(=O)N[C@@H](CCCCN)C(N)=O [Compound 44] (H-[X16][Cha][dL]RK-NH2)
IC50 [1]: 5 µM

Compound: CN(CC(c1ccccc1)c1ccccc1)[C@@H](Cc1ccccc1)C(=O)N[C@@H](CC1CCCCC1)C(=O)N[C@@H](CC1CCCCC1)C(=O)N[C@@H](CCCNC(=N)N)C(=O)N[C@@H](CCCCN)C(N)=O [Compound 16] (X18-[Cha][Cha]RK-NH2)
IC50: 10 µM

Compound: CCC(Oc1ccccc1)C(=O)N[C@@H](CC1CCCCC1)C(=O)N[C@@H](CC1CCCCC1)C(=O)N[C@@H](CCCCN)C(=O)N[C@@H](CCCCN)C(N)=O (stereo partly drawn) [Compound 49] ({Butanoyl(2-OPh)}-[Cha][Cha]KK-NH2)
IC50 [1]: 75 µM

Compound: CCC(Oc1ccccc1)C(=O)N[C@@H](CC1CCCCC1)C(=O)N[C@@H](CC1CCCCC1)C(=O)NCCCN1CCN(CCCN)CC1 (stereo partly drawn) [Compound 59]
IC50 [1]: 90 µM

Compound: CCC(Oc1ccccc1)C(=O)N[C@@H](CC1CCCCC1)C(=O)N[C@@H](CC1CCCCC1)C(=O)NCCCN(C)C (stereo partly drawn) [Compound 60]
IC50 [1]: 25 µM

Compound: N=C(N)NCCC[C@H](NC(=O)[C@H](CC1CCCCC1)NC(=O)[C@H](CC1CCCCC1)NC(=O)Cc1c[nH]c2ccccc12)C(=O)N[C@@H](CCCCN)C(N)=O [Compound 30] (X2-[Cha][Cha]RK-NH2)
IC50 [1]: 20 µM

Compound: CN(CC1CCCCC1)[C@@H](Cc1ccccc1)C(=O)N[C@@H](CC1CCCCC1)C(=O)N[C@@H](CC1CCCCC1)C(=O)N[C@@H](CCCNC(=N)N)C(=O)N[C@@H](CCCCN)C(N)=O [Compound 20] (X13-[Cha][Cha]RK-NH2)
IC50 [1]: 15 µM

Compound: CCC(Oc1ccccc1)C(=O)N[C@@H](CC1CCCCC1)C(=O)N[C@@H](CC1CCCCC1)C(=O)N[C@@H](CCCNC(=N)N)C(=O)N[C@@H](CCCN)C(N)=O (stereo partly drawn) [Compound 48] ({Butanoyl(2-OPh)}-[Cha][Cha]R[Orn]-NH2)
IC50 [1]: 10 µM

Compound: N=C(N)NCCC[C@H](NC(=O)[C@H](CC1CCCCC1)NC(=O)[C@H](CC1CCCCC1)NC(=O)[C@H](Cc1ccccc1)NCCC1CCCC1)C(=O)N[C@@H](CCCCN)C(=O)N1CCC[C@H]1C(=O)N[C@@H](CC(N)=O)C(=O)N[C@@H](CC(=O)O)C(=O)N[C@@H](CCCCN)C(N)=O [Compound 6] (H-[X23][Cha][Cha]RKPNDK-NH2)
IC50: 10 µM

Compound: N=C(N)NCCC[C@H](NC(=O)[C@H](CC1CCCCC1)NC(=O)[C@H](CC1CCCCC1)NC(=O)[C@@H]1Cc2ccccc2CN1CC1CCCCC1)C(=O)N[C@@H](CCCCN)C(N)=O [Compound 12] (X11-[Cha][Cha]RK-NH2)
IC50 [1]: 20 µM

Compound: CCCCCN(CCCCC)[C@@H](Cc1ccccc1)C(=O)N[C@@H](CC1CCCCC1)C(=O)N[C@@H](CC1CCCCC1)C(=O)N[C@@H](CCCNC(=N)N)C(=O)N[C@@H](CCCCN)C(N)=O [Compound 21, (N,N-di-n-pentyl-Phe)-Cha-Cha-Arg-Lys-NH2] (X6-[Cha][Cha]RK-NH2)
IC50 [1]: 10 µM

Compound: N=C(N)NCCC[C@H](NC(=O)[C@H](CC1CCCCC1)NC(=O)[C@H](CC1CCCCC1)NC(=O)c1cc2ccccc2cn1)C(=O)N[C@@H](CCCCN)C(N)=O [Compound 32] ({Isoquinolin(3-yl)carbonyl}-[Cha][Cha]RK-NH2)
IC50: 15 µM
